Measured values as given in US20250320471A1, “Method for Producing Compounds, Method for Producing Compound Library, Compound Library, and Screening Method” (The University of Tokyo, priority 2021, published 2025).

How the values were obtained:
LimF [1] = assay: His-prenylation of low molecular weight compounds, peptides and proteins by LimF; assay type: biochemical, Limnothrix sp. CACIAM 69d; settings: 125 μM substrate, 100 μM LimF, 2 mM GPP, 20 hours, standard conditions
Excerpt: Next, various low molecular weight compounds, peptides, and proteins, including various compounds that have already been approved as pharmaceuticals, were subjected to His-prenylation facilitated by LimF.

GLP1R = molecular target: T1, GLP1R (Homo sapiens, UniProt P43220); assay: cAMP production activation test (cAMP Hunter eXpress GLP1R CHO-K1 GPCR assay kit); assay type: cell-based; settings: GLP1R CHO-K1 cells
T1 construct: host or cells: CHO-K1
Protocol: The concentration range of the used peptides was from 0.33 μM to 20 nM.

Serum stability test = settings: 5 μM peptide in human serum at 37° C.
Protocol: After various incubation times, a sample of 4 μL was taken from the reaction system, and the reaction was stopped by mixing with an equal amount (4 L) of methanol. After centrifugation at 13,000 rpm for 5 minutes, the supernatant was collected, and after adding 4 times the amount of 1% TFA-aqueous solution, centrifugation was performed for an additional 5 minutes. 1 μL of the obtained supernatant was measured by LC/MS, and the amount of each remaining peptide was quantified.

DPP-4 = DPP-4 (Homo sapiens, UniProt P27487); assay: DPP-4 digestion test; settings: 5 μM peptide, Tris-Cl pH 8.0, 2.5 ng/L DPP-4, 37° C.
Protocol: After various incubation times, a sample of 4 μL was taken from the reaction system, and the reaction was stopped by adding 4 times the amount (16 L) of a 1% TFA-aqueous solution. After centrifugation at 13,000 rpm for 5 minutes, 1 μL of the supernatant was measured by LC/MS, and the amount of each remaining peptide was quantified.

PagF = settings: Tyr C5 O-prenylation; cited from earlier work
LynF = settings: Tyr C5 O-prenylation; cited from earlier work
LimF [2] = assay: Prenylation of high molecular weight proteins by LimF (MALDI-TOF-MS); assay type: biochemical, Limnothrix sp. CACIAM 69d; settings: 10 μM protein, 10 μM LimF, 2 mM GPP, 20 hours
Protocol: Moreover, His-prenylation by LimF was also performed for two types of high molecular weight proteins (acetylated bovine-derived albumin (Ac-BSA (Wako Pure Chemical Industries)) and horse-derived glutathione-S-transferase (GST (Sigma-Aldrich Japan))). Specifically, 10 μM Ac-BSA or 10 μM GST was reacted for 20 hours in the presence of 10 μM LimF and 2 mM GPP under previously optimized standard conditions. After desalting the reaction solution after the reaction by solid phase extraction (SPE C-TIP (Nikkyo Technos)), using sinapinic acid as a matrix, analysis was performed using a matrix-assisted laser desorption ionization-time-of-flight mass spectrometer (MALDI-TOF-MS, ultrafleXtreme manufactured by Bruker Daltonics).

bcLimE2 = molecular target: T2, bcLimE2
T2 chain: RYPHEEIP

teR6-H5A = molecular target: T3, teR6-H5A
T3 chain: FRGNATYIPC

Sequence of DPP-4 (P27487 whole entry, species assumed): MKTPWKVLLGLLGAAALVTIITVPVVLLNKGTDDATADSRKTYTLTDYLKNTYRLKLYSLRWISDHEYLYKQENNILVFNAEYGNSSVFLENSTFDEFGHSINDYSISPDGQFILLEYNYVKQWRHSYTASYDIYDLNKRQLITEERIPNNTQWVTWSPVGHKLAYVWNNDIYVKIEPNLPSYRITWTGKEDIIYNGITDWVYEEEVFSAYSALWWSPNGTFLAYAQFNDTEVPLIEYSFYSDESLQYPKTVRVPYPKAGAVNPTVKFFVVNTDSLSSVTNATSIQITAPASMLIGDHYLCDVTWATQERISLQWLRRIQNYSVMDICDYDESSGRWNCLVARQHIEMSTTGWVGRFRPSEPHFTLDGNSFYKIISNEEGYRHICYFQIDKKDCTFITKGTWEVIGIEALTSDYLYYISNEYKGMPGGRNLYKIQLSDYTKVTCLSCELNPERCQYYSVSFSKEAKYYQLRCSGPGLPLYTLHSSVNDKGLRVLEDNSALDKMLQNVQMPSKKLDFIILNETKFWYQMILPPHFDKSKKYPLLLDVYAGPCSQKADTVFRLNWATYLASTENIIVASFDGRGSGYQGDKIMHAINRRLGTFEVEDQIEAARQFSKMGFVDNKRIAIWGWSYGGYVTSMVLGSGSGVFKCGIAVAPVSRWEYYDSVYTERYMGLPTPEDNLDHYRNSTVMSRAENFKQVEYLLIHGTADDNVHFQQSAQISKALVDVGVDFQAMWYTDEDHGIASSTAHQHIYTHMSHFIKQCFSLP
T1 sequence (P43220 24-463): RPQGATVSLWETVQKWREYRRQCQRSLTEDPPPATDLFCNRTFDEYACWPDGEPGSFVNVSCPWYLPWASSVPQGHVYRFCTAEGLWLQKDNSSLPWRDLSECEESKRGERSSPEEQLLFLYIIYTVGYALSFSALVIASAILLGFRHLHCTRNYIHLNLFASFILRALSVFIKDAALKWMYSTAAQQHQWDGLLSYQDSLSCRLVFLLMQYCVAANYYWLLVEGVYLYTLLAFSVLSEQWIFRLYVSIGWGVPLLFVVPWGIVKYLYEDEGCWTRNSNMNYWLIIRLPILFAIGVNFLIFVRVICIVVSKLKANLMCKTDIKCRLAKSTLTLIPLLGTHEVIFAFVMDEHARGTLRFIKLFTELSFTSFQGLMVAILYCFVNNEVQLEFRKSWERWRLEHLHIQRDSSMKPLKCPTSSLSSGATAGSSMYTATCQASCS

For CC[C@H](C)[C@H](NC(=O)C(Cc1ccccc1)NC(=O)[C@H](CCC(=O)O)NCCCCN[C@@H](CCCCN)C(=O)C(=O)[C@H](C)NC(=O)C(CCC(N)=O)NC(=O)CNC(=O)C(CCC(=O)O)NC(=O)[C@H](CC(C)C)NC(=O)C(Cc1ccc(O)cc1)NC(=O)[C@H](CO)NC(=O)C(CO)NCCCCN[C@H](C(=O)C(=O)[C@H](CC(N)=O)NC(=O)C(CO)NC(=O)[C@@H](NC(=O)C(Cc1ccccc1)NC(=O)[C@@H](NC(=O)CNC(=O)[C@H](CCC(=O)O)NC(=O)C(C)NC(=O)[C@@H](N)Cc1cnc[nH]1)[C@@H](C)O)[C@@H](C)O)C(C)C)C(=O)NC(C)C(=O)N[C@@H](Cc1c[nH]c2ccccc12)C(=O)NC(CC(C)C)C(=O)N[C@H](C(=O)NC(CCCCN)C(=O)NCC(=O)C(=O)[C@H](CCCNC(=N)N)NN)C(C)C (some centres unmarked) [GLP-1, HAEGTFTSDVSSYLEGGAAKEFIAWLVKGR], the “His-prenylation efficiency (LC/MS)” value (LimF [1]) was 75%, the “cAMP production activation ability” value (GLP1R) was “strongly activated cAMP production” and the “serum stability (remaining peptide by LC/MS)” value (Serum stability test) was “rapid degradation”. The “stability in DPP-4 digestion test (remaining peptide by LC/MS)” value (DPP-4) was “rapid degradation”.

For CC(C)(C)OC(=O)N[C@@H](Cc1ccc(O)cc1)C(=O)O [N-boc-L-Tyr], the Kcat (PagF) is listed as 0.183 s⁻¹, the Km (PagF) is listed as 6.2 mM and the Kcat (LynF) is listed as 0.0177 s⁻¹. For the same molecule, the Km (LynF) was 14 mM.

For “Ac-BSA: acetylated bovine-derived albumin”, the “number of prenylations by LimF (mass spectrum)” value (LimF [2]) was “two locations”.

B1: LimF (wild-type) (protein)
chain: MKKRKSSKVFKSTIAPEEKLRYIGNHKQAFDIEPLYPLALFEEFVATTGDCIIECSGKIKQDQLYPARIDLQFSDKHHFHNIHTSIDFLKRAASRTDVNLNLDILATFLAGNFDYSKVQNILAGIDLRQNLGESKLKLFIRIGDYPAKMAVAKHLCNITPESEAMLRSDTLHIGFDFYLDGRSAIELYPELKKDEFNHPFIYNQLKTILSPEALKPLPLCNLFGIGLSPANEANVLYYHLENIEDFLSYFPINDTARRVHDFYLQQEGSRRMWVALSESEMKAGRINNVNLYYSKAFTSQNP
B1 showed a Km (mM), steady-state kinetics of His-prenylation with GPP (bcLimE2) of 0.31 mM and a Km (mM), steady-state kinetics of Tyr-prenylation with GPP (teR6-H5A) of 7.3 mM.
